Results reported in patent US11319315B2, “Cyclohexyl acid triazole azoles as LPA antagonists” (BRISTOL-MYERS SQUIBB COMPANY, priority 2017, dated 2022).
pIC50: −log10 of the molar value.

molecular target: T1, human LPA1 (Homo sapiens, UniProt Q92633); assay: LPA1 functional antagonist assay (LPA-induced calcium flux in CHO cells overexpressing human LPA1); format: cell-based; conditions: inhibition of calcium flux induced by 10 nM LPA, CHO cells overexpressing human LPA1; read-out: hLPA1 IC50
T1 construct: expressed in transfected cells; host or cells: Chinese hamster ovary (CHO) cells
T1 sequence (Q92633 whole entry): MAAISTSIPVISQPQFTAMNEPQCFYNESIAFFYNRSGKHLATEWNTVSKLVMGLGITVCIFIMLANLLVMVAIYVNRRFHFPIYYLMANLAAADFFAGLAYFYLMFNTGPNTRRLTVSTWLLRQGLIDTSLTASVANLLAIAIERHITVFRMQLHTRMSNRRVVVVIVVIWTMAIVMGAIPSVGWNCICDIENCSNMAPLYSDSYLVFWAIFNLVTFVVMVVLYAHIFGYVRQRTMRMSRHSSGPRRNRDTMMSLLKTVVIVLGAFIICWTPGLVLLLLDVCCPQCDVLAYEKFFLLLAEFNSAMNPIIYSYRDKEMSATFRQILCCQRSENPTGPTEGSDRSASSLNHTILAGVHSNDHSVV
Procedure: The effectiveness of compounds of the present invention as LPA1 inhibitors can be determined in an LPA1 functional antagonist assay as follows:
Chinese hamster ovary cells overexpressing human LPA1 were plated overnight (15,000 cells/well) in poly-D-lysine coated 384-well microplates (Greiner bio-one, Cat #781946) in DMEM/F12 medium (Gibco, Cat #11039). Following overnight culture, cells were loaded with calcium indicator dye (AAT Bioquest Inc, Cat #34601) for 30 minutes at 37° C. The cells were then equilibrated to room temperature for 30 minutes before the assay. Test compounds solubilized in DMSO were transferred to 384 well non-binding surface plates (Corning, Cat #3575) using the Labcyte Echo acoustic dispense and diluted with assay buffer [IX HBSS with calcium/magnesium (Gibco Cat #14025-092), 20 mM HEPES (Gibco Cat #15630-080) and 0.1% fatty acid free BSA (Sigma Cat #A9205)] to a final concentration of 0.5% DMSO. Diluted compounds were added to the cells by FDSS6000 (Hamamatsu) at final concentrations ranging from 0.08 nM to 5 μM. and were then incubated for 20 min at room temperature at which time LPA (Avanti Polar Lipids Cat #857130C) was added at final concentrations of 10 nM to stimulate the cells. The compound IC50 value was defined as the concentration of test compound which inhibited 50% of the calcium flux induced by LPA alone. IC50 values were determined by fitting data to a 4-parameter logistic equation (GraphPad Prism, San Diego Calif.).

SMILES	pIC50
Cc1nc(-c2nnn(C)c2Cc2nnc(C3CCCC3)o2)ccc1O[C@H]1CCC[C@H](C(=O)O)C1 [Example 75]	6.54
Cc1nc(-c2nnn(C)c2Cc2nnc(-c3ccccc3)o2)ccc1O[C@H]1CCC[C@H](C(=O)O)C1 [Example 76]	6.54
Cc1nc(-c2nnn(C)c2Cc2nnc(Cc3ccc(F)cc3)o2)ccc1O[C@H]1CCC[C@H](C(=O)O)C1 [Example 77]	6.59
Cc1nc(-c2nnn(C)c2C(O)c2cn(Cc3ccccc3)nn2)ccc1O[C@H]1CCC[C@H](C(=O)O)C1 (stereo partly drawn) [Example 78, (1 S,3 S)-3-((6-(5-((1-benzyl-1H-1,2,3-triazol-4-yl)(hydroxy)methyl)-1-methyl-1H-1,2,3-triazol-4-yl)-2-methylpyridin-3-yl)oxy)cyclohexane-1-carboxylic acid]	7.06
CCCCc1cn(Cc2c(-c3ccc(O[C@H]4CCC[C@H](C(=O)O)C4)c(C)n3)nnn2C)nn1 [Example 79, (1 S,3 S)-3-((6-(5-((4-butyl-1H-1,2,3-triazol-1-yl)methyl)-1-methyl-1H-1,2,3-triazol-4-yl)-2-methylpyridin-3-yl)oxy)cyclohexane-1-carboxylic acid]	7.36
Cc1nc(-c2nnn(C)c2Cn2cc(Cc3ccccc3)cn2)ccc1O[C@H]1CCC[C@H](C(=O)O)C1 [Example 80, (1 S,3 S)-3-((6-(5-((4-benzyl-1H-pyrazol-1-yl)methyl)-1-methyl-1H-1,2,3-triazol-4-yl)-2-methylpyridin-3-yl)oxy)cyclohexane-1-carboxylic acid]	7.82
Cc1nc(-c2nnn(C)c2Cn2cc(Cc3ccccc3)nn2)ccc1O[C@H]1CCC[C@H](C(=O)O)C1 [Example 81]	7.43
Cc1nc(-c2nnn(C)c2Cn2cc(C(C)C)nn2)ccc1O[C@H]1CCC[C@H](C(=O)O)C1 [Example 82]	6.09
Cc1nc(-c2nnn(C)c2Cn2cc(COc3ccccc3)nn2)ccc1O[C@H]1CCC[C@H](C(=O)O)C1 [Example 83]	6.87
Cc1nc(-c2nnn(C)c2Cn2nncc2COc2ccccc2)ccc1O[C@H]1CCC[C@H](C(=O)O)C1 [Example 84]	6.76
Cc1nc(-c2nnn(C)c2Cn2cc(C(=O)c3ccccc3)nn2)ccc1O[C@H]1CCC[C@H](C(=O)O)C1 [Example 85]	6.62
CCCc1cn(Cc2c(-c3ccc(O[C@H]4CCC[C@H](C(=O)O)C4)c(C)n3)nnn2C)nn1 [Example 86]	6.73
Cc1nc(-c2nnn(C)c2Cn2cc(C(O)c3ccccc3)nn2)ccc1O[C@H]1CCC[C@H](C(=O)O)C1 (stereo partly drawn) [Example 87]	6.44
Cc1nc(-c2nnn(C)c2Cn2cc(COC(C)(C)C)nn2)ccc1O[C@H]1CCC[C@H](C(=O)O)C1 [Example 88]	5.53
Cc1nc(-c2nnn(C)c2Cn2cc(C3(O)CCCCC3)nn2)ccc1O[C@H]1CCC[C@H](C(=O)O)C1 [Example 89]	5.49
CCCCc1cn(Cc2c(-c3ccc(O[C@H]4CCC[C@H](C(=O)O)C4)c(C#N)n3)nnn2C)nn1 [Example 90]	7.11
Cn1nnc(-c2ccc(O[C@H]3CCC[C@H](C(=O)O)C3)c(C#N)n2)c1Cn1cc(Cc2ccccc2)nn1 [Example 91]	6.96
Cn1nnc(-c2ccc(O[C@H]3CCC[C@H](C(=O)O)C3)c(C#N)n2)c1Cn1cc(CC2CC2)nn1 [Example 92]	6.96
Cn1nnc(-c2ccc(O[C@H]3CCC[C@H](C(=O)O)C3)c(C#N)n2)c1Cn1cc(CC2CCCC2)nn1 [Example 93]	7.22
Cn1nnc(-c2ccc(O[C@H]3CCC[C@H](C(=O)O)C3)c(C#N)n2)c1Cn1cc(CC2CCCCC2)nn1 [Example 94]	7.27
CCc1nc(-c2nnn(C)c2Cn2cc(Cc3ccccc3)nn2)ccc1O[C@H]1CCC[C@H](C(=O)O)C1 [Example 95]	8.15
CCCCc1cn(Cc2c(-c3ccc(O[C@H]4CCC[C@H](C(=O)O)C4)c(CC)n3)nnn2C)nn1 [Example 96]	8.05
CCc1nc(-c2nnn(C)c2Cn2cc(CC3CC3)nn2)ccc1O[C@H]1CCC[C@H](C(=O)O)C1 [Example 97]	8.10
Cc1sc(NCc2c(-c3ccc(O[C@H]4CCC[C@H](C(=O)O)C4)cn3)nnn2C)nc1-c1ccccn1 [Example 98]	5.98
Cc1nc(-c2nnn(C)c2CNc2nc(C3CCC3)ns2)ccc1O[C@H]1CCC[C@H](C(=O)O)C1 [Example 99]	7.14
Cc1nc(-c2nnn(C)c2CNc2nc(C3CCCC3)ns2)ccc1O[C@H]1CCC[C@H](C(=O)O)C1 [Example 100]	7.11

SMILES	pIC50
Cc1nc(-c2nnn(C)c2CNc2nc(-c3ccccn3)ns2)ccc1O[C@H]1CCC[C@H](C(=O)O)C1 [Example 101]	6.32
Cc1nc(-c2nnn(C)c2CNc2nc(CC(C)C)ns2)ccc1O[C@H]1CCC[C@H](C(=O)O)C1 [Example 102]	7.01
Cc1nc(-c2nnn(C)c2CNc2nc(C3CC3)ns2)ccc1O[C@H]1CCC[C@H](C(=O)O)C1 [Example 103]	6.29
CCCc1nsc(NCc2c(-c3ccc(O[C@H]4CCC[C@H](C(=O)O)C4)c(C)n3)nnn2C)n1 [Example 104]	6.96
Cc1nc(-c2nnn(C)c2Cn2nnc(CC3CC3)n2)ccc1O[C@H]1CCC[C@H](C(=O)O)C1 [Example 105, (1 S,3 S)-3-((6-(5-((5-(cyclopropylmethyl)-2H-tetrazol-2-yl)methyl)-1-methyl-1H-1,2,3-triazol-4-yl)-2-methylpyridin-3-yl)oxy)cyclohexane-1-carboxylic acid]	7.54
Cc1nc(-c2nnn(C)c2Cn2nnnc2CC2CC2)ccc1O[C@H]1CCC[C@H](C(=O)O)C1 [Example 106, (1S,3S)-3-((6-(5-((5-(cyclopropylmethyl)-1H-tetrazol-1-yl)methyl)-1-methyl-1H-1,2,3-triazol-4-yl)-2-methylpyridin-3-yl)oxy)cyclohexane-1-carboxylic acid]	6.83
Cc1nc(-c2nnn(C)c2Cn2nnc(-c3ccccc3)n2)ccc1O[C@H]1CCC[C@H](C(=O)O)C1 [Example 107]	7.38
Cc1nc(-c2nnn(C)c2Cn2nnnc2-c2ccccc2)ccc1O[C@H]1CCC[C@H](C(=O)O)C1 [Example 108]	6.62
Cc1nc(-c2nnn(C)c2Cn2nnc(Cc3ccccc3)n2)ccc1O[C@H]1CCC[C@H](C(=O)O)C1 [Example 109]	7.85
Cc1nc(-c2nnn(C)c2Cn2nnnc2Cc2ccccc2)ccc1O[C@H]1CCC[C@H](C(=O)O)C1 [Example 110]	6.68
CCCCc1nnn(Cc2c(-c3ccc(O[C@H]4CCC[C@H](C(=O)O)C4)c(C)n3)nnn2C)n1 [Example 111]	7.47
CCCCc1nnnn1Cc1c(-c2ccc(O[C@H]3CCC[C@H](C(=O)O)C3)c(C)n2)nnn1C [Example 112]	6.75
CCCc1nnn(Cc2c(-c3ccc(O[C@H]4CCC[C@H](C(=O)O)C4)c(C)n3)nnn2C)n1 [Example 113]	7.52
CCCc1nnnn1Cc1c(-c2ccc(O[C@H]3CCC[C@H](C(=O)O)C3)c(C)n2)nnn1C [Example 114]	6.90
Cc1nc(-c2nnn(C)c2COc2ncn(-c3ccccc3)n2)ccc1O[C@H]1CCC[C@H](C(=O)O)C1 [Example 115, (1S,3S)-3-((2-methyl-6-(1-methyl-5-(((1-phenyl-1H-1,2,4-triazol-3-yl)oxy)methyl)-1H-1,2,3-triazol-4-yl)pyridin-3-yl)oxy)cyclohexane-1-carboxylic acid]	7.33
Cc1nc(-c2nnn(C)c2COc2nc(C3CC3)ns2)ccc1O[C@H]1CCC[C@H](C(=O)O)C1 [Example 116, (1S,3S)-3-((6-(5-(((3-cyclopropyl-1,2,4-thiadiazol-5-yl)oxy)methyl)-1-methyl-1H-1,2,3-triazol-4-yl)-2-methylpyridin-3-yl)oxy)cyclohexane-1-carboxylic acid]	6.39
Cc1nc(-c2nnn(C)c2COc2noc(CC3CC3)n2)ccc1O[C@H]1CCC[C@H](C(=O)O)C1 [Example 117, (1S,3S)-3-((6-(5-(((5-(cyclopropylmethyl)-1,2,4-oxadiazol-3-yl)oxy)methyl)-1-methyl-1H-1,2,3-triazol-4-yl)-2-methylpyridin-3-yl)oxy)cyclohexane-1-carboxylic acid]	7.96
CCc1nsc(NCc2c(-c3ccc(O[C@H]4CCC[C@H](C(=O)O)C4)c(C)n3)nnn2C)n1 [Example 118]	6.04
Cc1nc(-c2nnn(C)c2CNc2nc(C(F)(F)F)ns2)ccc1O[C@H]1CCC[C@H](C(=O)O)C1 [Example 119]	7.22
Cc1nc(-c2nnn(C)c2CNc2nsc(C(C)C)n2)ccc1O[C@H]1CCC[C@H](C(=O)O)C1 [Example 120]	7.60
Cc1nc(-c2nnn(C)c2CNc2nsc(Nc3ccccc3)n2)ccc1O[C@H]1CCC[C@H](C(=O)O)C1 [Example 121]	6.33
Cc1nc(-c2nnn(C)c2CNc2nnc(C(C)C)s2)ccc1O[C@H]1CCC[C@H](C(=O)O)C1 [Example 122]	6.26
Cc1nc(-c2nnn(C)c2CNc2cc(C3CC3)nn2C)ccc1O[C@H]1CCC[C@H](C(=O)O)C1 [Example 123]	5.89
Cc1nc(-c2nnn(C)c2CNc2cnn(C(C)C)n2)ccc1O[C@H]1CCC[C@H](C(=O)O)C1 [Example 124]	6.47
Cc1nc(-c2nnn(C)c2CNc2cc(C(C)C)nn2C)ccc1O[C@H]1CCC[C@H](C(=O)O)C1 [Example 125]	6.20
